Literature values as cited in patent US20250364101A1, “Dabigatran Dosing” (Closed Loop Medicine Ltd, priority 2023, published 2025).
Where two headings read alike, the source gives them in different places.

Tests used:
[1] = not given; remark: listed apart in the source
[2] = not given; remark: listed apart in the source

| Structure (SMILES) | risk of intracranial bleeds (compared with adjusted-dose warfarin) | outcome compared with warfarin (patients with nonvalvular AF) | accumulation of the drug ([1]; daily doses of approximately 150-300 mg) | elimination via the kidney as share of total clearance ([1]; in vivo) [%] | remainder going into the faeces ([1]; oral) [%] | relationship between maximal plasma level and dose administered ([1]; single dose) | effect of food on total absorption ([1]; with food) | Change in Drug Level Exposure (AUC), increase ([2]; Amiodarone) [% increase] | Change in Drug Level Exposure (AUC) ([2]; CrCl = 30, relative to median CrCl of 69) [fold] | Change in Drug Level Exposure (AUC) ([2]; CrCl = 50, relative to median CrCl of 69) [fold] | Change in Drug Level Exposure (AUC), decrease ([2]; PPIs) [% decrease] | Change in Drug Level Exposure (AUC), increase ([2]; South Asians compared to other ethnicities) | Change in Drug Level Exposure (AUC), increase ([2]; Verapamil) [% increase] | increase in distribution volume (Vd) ([2]; above 80 kg) [% per kg] | Change in activity: bleeding ([2]; coadministration of Asprin, clopidogrel) | Change in Drug Level Exposure (AUC), increase ([2]; females compared to men) | effect of low weight on Cmax ([2]; low weight) | Change in Drug Level Exposure (AUC), increase per year of age ([2]; older compared to 72 yr) | Change in Drug Level Exposure (AUC), increase ([2]; patients with HF) |
| --- | --- | --- | --- | --- | --- | --- | --- | --- | --- | --- | --- | --- | --- | --- | --- | --- | --- | --- | --- |
| CCCCCCOC(=O)NC(=N)c1ccc(NCc2nc3cc(C(=O)N(CCC(=O)OCC)c4ccccn4)ccc3n2C)cc1 [Dabigatran etexilate] | small reduction | superior to warfarin |  |  |  |  |  |  |  |  |  |  |  |  |  |  |  |  |  |
| [H]/N=C(/N)c1ccc(NCc2nc3cc(C(=O)N(CCC(=O)O)c4ccccn4)ccc3n2C)cc1 [dabigatran] |  |  | approximately 1.7 fold | 80 | ~90 | linear relationship | does not affect | 12 | 1.8 | 1.3 | ~13 | ~26% increase in South Asians compared to other ethnicities | 23 | 0.8 | Coadministration will increase chance of bleeding | ~9% increase in females compared to men | will increase | 0.41% increase per year older compared to 72 yr % per year | ~7% increase in patients with HF |
